Test results: patent US20250109165A1, “CYCLOPHILIN INHIBITORS AND USES THEREOF” (The Broad Institute, Inc., priority 2022, published 2025)
“And” between values parts separate entries of the source, which are not always exact repeats. Equal entries are not always repeated. Where two headings read alike, the source gives them in different places.

How the values were obtained:
CypD [1] = target: T1, CypD (Homo sapiens, UniProt P30405); test: Chymotrypsin coupled prolyl-isomerase assay; assay type: biochemical
T1 construct: PPIF (UniProtKB Entry P30405: res 45-207); made in house; host or cells: E. coli BL21(DE3)
Description: (§1) IC50 values were calculated to be the value at which 50% inhibition was achieved on each compound's non-linear regression fitted curve.

HeLa cells = test: Fluorescence microscopy on HeLa cells; assay type: cell-based, human; settings: Cy5 labeled compound 6 μM
Description: Fluorescence microscopy on Hela cells. Into 96 well black, clear bottom TC treated plates, cells were seeded in Dulbecco's Modified Eagle Medium (DMEM) supplemented with 10% fetal bovine serum 24 hours prior at a density where wells were ˜80% confluent at time of experiment. Media was removed and cells were then stained with 50 μL of mixture containing Cy5 labeled compound (6 μM) in Kreb's ringer solution HEPES buffered pH 7.2 (KRB), for 1 hour at 37° C. Then, 50 μL Hoechst 33342 (8 μM) and Mitotracker Green FM (0.1 μM) in KRB was added directly to wells containing cells and incubated for 15 minutes at 37° C. Media was removed and cells were washed two times with 100 μL KRB. Cells were then kept adherent to the wells in 100 μL KRB for imaging. Fluorescence microscopy was conducted on an Opera Phenix Plus High-Content Screening System, using Alexa 488, Alexa 647, and Hoescht 33342 channels. Images were analyzed using Harmony 4.9.

cyclophilins = test: Prolyl-isomerase inhibition screen on cyclophilins and cyclophilin mutants; assay type: biochemical, human
Description: as §1

[2] = system: mPTP opening in isolated mouse liver mitochondria; test: Mitochondrial calcium retention capacity assay; assay type: cell-based; settings: 2 μM CsA, 10 μM B52-Cy5, 10 μM *B52-Cy5, 20 μM B53-Cy5, 20 μM *B53-Cy5; pulses of 60 μM CaCl2; compared to DMSO control
Description: Isolation of mouse liver mitochondria: All procedures used in animal studies were approved by the Institutional Animal Care and Use Committee at Massachusetts General Hospital. Female C57B1/6 J mice (Jackson Labs) age 10-12 weeks were anesthetized by isoflurane. The liver from one mouse was rinsed in ice-cold PBS, minced in ice-cold isolation buffer containing 0.28 M sucrose, 10 mM Hepes-KOH pH 7.2, 0.2 mM EDTA and 1% (w/v) BSA, gently homogenized with 4 strokes of a tight-fitting Teflon pestle at 1000 rpm, and then centrifuged for 10 minutes at 600 g at 4° C. The supernatant was recovered and centrifuged for 10 minutes at 8000 g at 4° C. The loose outer buffy coat was rinsed off and the pellet resuspended gently in isolation buffer and the spins were repeated. […] The suspension was kept on ice and all assays performed within 4-6 hours following isolation. Quality control was done with every preparation by adding 250 mcg mitochondria to 500 μl of assay buffer containing 137 mM KCl, 10 mM Hepes-KOH pH 7.2, 2.5 mM MgCl2, 5 mM each of glutamate and malate, and 3 mM KH2PO4. Sequential 150 μM ADP pulses were then delivered. Preparations with respiratory control ratio>6 (as assessed by the ratio of ADP-coupled state 3 respiration to state 4 respiration) were used for further experiments. Measurements were made in a custom-built fluorimeter using a cuvette with a Red Eye oxygen patch (Ocean Optics) and an optical probe that is connected to the fluorimeter.
Mitochondrial calcium retention capacity assays: 250 mcg of mouse liver mitochondria isolated as above were added to […] of assay buffer containing 125 mM KCl, 20 mM Hepes-KOH pH 7.2, 1 mM MgCl2, 5 mM each of glutamate and malate, and 3 mM KH2PO4. 0.5 μM Calcium Green-5N (Molecular Probes) was included to monitor extramitochondrial free Ca^2+. Fluorescence was continuously monitored in the custom-built fluorimeter described above, with excitation 470 nm and emission […]. Sequential 60 μM CaCl2) pulses were delivered until Ca^2+ uptake ceased and an abrupt release of previously taken up Ca^2+ was observed, consistent with mPTP opening. The calcium retention capacity ratio (CRC) was obtained by normalizing the number of Ca^2+ pulses that could be taken up in a given condition by that taken up under DMSO control conditions, as previously described^72.

CypD K118E = target: T2, CypD K118E (Homo sapiens, UniProt P30405, K118E); test: Chymotrypsin coupled prolyl-isomerase assay; assay type: biochemical; settings: CypD K118E mutant; read-out: IC50^CypDK118E
T2 construct: made in house; host or cells: E. coli BL21(DE3)
Description: as §1

CypA E81S/K82R = target: T3, CypA E81S/K82R (Homo sapiens, UniProt P62937, E81S/K82R); test: Chymotrypsin coupled prolyl-isomerase assay; assay type: biochemical; settings: CypA E81S/K82R gatekeeper mutant; read-out: IC50^CypAE81S/K82R
T3 construct: Lane 12-SNA-CypA E81S/K82R (1-165); His6 tag (N, cleaved yes); made in house; host or cells: E. coli BL21(DE3)
Description: as §1

CypD [3] = test: Chymotrypsin coupled prolyl-isomerase assay; assay type: biochemical, human; settings: CypD versus wild-type CypA
Description: as §1

CypD S123E = target: T4, CypD S123E (Homo sapiens, UniProt P30405, S123E); test: Chymotrypsin coupled prolyl-isomerase assay; assay type: biochemical; settings: CypD S123E gatekeeper mutant; read-out: IC50^CypDS123E
T4 construct: made in house; host or cells: E. coli BL21(DE3)
Description: as §1

CypA = target: T5, CypA (Homo sapiens, UniProt P62937); test: Chymotrypsin coupled prolyl-isomerase assay; assay type: biochemical; settings: wild-type CypA
T5 construct: PPIA (UniProtKB Entry P62937: res 1-165); made in house; host or cells: E. coli BL21(DE3)
Description: as §1

CypB E121S = target: T6, CypB E121S (Homo sapiens, UniProt P23284, E121S); test: Chymotrypsin coupled prolyl-isomerase assay; assay type: biochemical; settings: CypB E121S gatekeeper mutant; read-out: IC50^CypBE121S
T6 construct: Lane 14-SNA-CypB E121S (34-216); His6 tag (N, cleaved yes); made in house; host or cells: E. coli BL21(DE3)
Description: as §1

CypB = target: T7, CypB (Homo sapiens, UniProt P23284); test: Chymotrypsin coupled prolyl-isomerase assay; assay type: biochemical; settings: wild-type CypB
T7 construct: PPIB (UniProtKB Entry P23284: res 34-216); His6 tag with TEV site (seen as […]- and […]- forms) (N); made in house; host or cells: E. coli BL21(DE3)
Description: as §1

CypD K118A = target: T8, CypD K118A (Homo sapiens, UniProt P30405, K118A); test: Chymotrypsin coupled prolyl-isomerase assay; assay type: biochemical; settings: CypD K118A mutant; read-out: IC50^CypDK118A
T8 construct: made in house; host or cells: E. coli BL21(DE3)
Description: as §1

CypE [4] = target: T9, CypE (Homo sapiens, UniProt Q9UNP9); test: Chymotrypsin coupled prolyl-isomerase assay; assay type: biochemical; settings: for IC50: wild-type CypE
T9 construct: PPIE (UniProtKB Entry Q9UNP9: res 131-301); host or cells: E. coli BL21(DE3)
Description: as §1

CypE K217A [5] = target: T10, CypE K217A (Homo sapiens, UniProt Q9UNP9, K217A); test: Chymotrypsin coupled prolyl-isomerase assay; assay type: biochemical
T10 construct: Lane 5-GS-CypE K217A (131-301); His6 tag (N, cleaved yes); made in house; host or cells: E. coli BL21(DE3)
Description: as §1

CypE [6] = target: T9, CypE; test: Competition anisotropy (fluorescence polarization) binding assay with A26-Fl; settings: for CypE binding in FP competition (in words): compared to C3A
Description: (§2) Competition anisotropy binding assay with A26-Fl: Adapted from previous work^54, into a flat-bottom black untreated 96 well plate (Corning), cyclophilin in assay buffer (25 mM HEPES pH 8.0, 100 mM NaCl, 0.01% Triton X-100) at a predetermined concentration from FIG. 27 was incubated with 0.5 nM A26-Fl for 10 minutes at room temperature. Competitor macrocycle was then added to each well and incubated for 24 hours. Final assay volume was 100 μL with 0.25% DMSO. Fluorescence anisotropy was then measured using a Tecan Spark® plate reader using 492 nm/523 nm excitation/emission settings. Raw fluorescence polarization data was normalized to protein+fluorescent probe and buffer+fluorescent probe and Ki values were calculated using one site-competitive binding equation with Prism 9, importing Kd values from A26-Fl (FIGS. 12A-12C).

CypE K217A [7] = target: T10, CypE K217A; test: as above
Description: as §2

CypE [8] = target: T9, CypE; test: Assessment of covalent modification by mass spectrometry; settings: after treatment with NaCNBH3
Description: Assessment of covalent modification of CypE and other cyclophilin proteins: Into PCR strip, CypE or other cyclophilin in assay buffer (25 mM HEPES pH 8.0, 100 mM NaCl, 0.01% Triton X-100) was incubated with compound for 1 hour at room temperature. Final concentrations were 20 μM CypE, 100 μM compound, 0.5% DMSO, at a final volume of 20 μL. For analysis of lysine-iminoboronate modification, samples were directly submitted to Harvard's Center for Mass Spectroscopy for LC-MS analysis. For amine-lysine modification, samples were treated with 5 μL of 125 mM sodium cyanoborohydride dissolved in 25 mM Ammonium bicarbonate solution (pH 8.0) and incubated for 4 hours at room temperature. For all other wild-type cyclophilins, protein was treated for 4 hours with C3A, followed by 16 hour treatment with NaCNBH3. Final [NaCNBH3]=25 mM. Samples were then submitted for LC-MS as described above.

T1 sequence (P30405 45-207): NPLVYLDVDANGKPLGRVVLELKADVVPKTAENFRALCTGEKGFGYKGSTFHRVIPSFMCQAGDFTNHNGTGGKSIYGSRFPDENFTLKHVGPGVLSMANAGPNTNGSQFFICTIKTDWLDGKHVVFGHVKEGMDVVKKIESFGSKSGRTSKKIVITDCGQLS
T10 sequence (Q9UNP9 131-301 K217A): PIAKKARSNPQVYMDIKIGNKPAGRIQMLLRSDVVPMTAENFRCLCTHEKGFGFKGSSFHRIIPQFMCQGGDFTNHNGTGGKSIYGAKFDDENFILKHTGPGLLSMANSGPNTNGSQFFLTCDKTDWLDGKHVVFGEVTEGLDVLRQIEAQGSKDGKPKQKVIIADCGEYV
T9 sequence (Q9UNP9 131-301): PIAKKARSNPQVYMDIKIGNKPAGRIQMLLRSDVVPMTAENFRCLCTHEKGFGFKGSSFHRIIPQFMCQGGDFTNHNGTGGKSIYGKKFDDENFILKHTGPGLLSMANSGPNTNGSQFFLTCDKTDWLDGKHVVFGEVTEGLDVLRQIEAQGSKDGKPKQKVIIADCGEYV
T7 sequence (P23284 34-216): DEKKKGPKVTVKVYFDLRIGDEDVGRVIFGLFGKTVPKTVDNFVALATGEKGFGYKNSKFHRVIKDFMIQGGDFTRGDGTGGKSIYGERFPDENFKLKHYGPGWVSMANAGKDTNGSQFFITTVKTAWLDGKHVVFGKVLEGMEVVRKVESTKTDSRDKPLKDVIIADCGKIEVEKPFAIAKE
T8 sequence (P30405 45-207 K118A): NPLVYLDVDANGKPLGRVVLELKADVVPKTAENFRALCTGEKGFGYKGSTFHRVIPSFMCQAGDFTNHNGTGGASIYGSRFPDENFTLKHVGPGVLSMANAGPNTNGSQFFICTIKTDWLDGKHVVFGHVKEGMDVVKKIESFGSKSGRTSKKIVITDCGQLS
T2 sequence (P30405 45-207 K118E): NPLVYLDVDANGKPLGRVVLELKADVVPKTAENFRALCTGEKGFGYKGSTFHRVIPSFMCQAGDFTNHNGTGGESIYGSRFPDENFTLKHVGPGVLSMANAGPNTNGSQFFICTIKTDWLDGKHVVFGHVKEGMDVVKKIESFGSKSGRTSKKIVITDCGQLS
T5 sequence (P62937 whole entry): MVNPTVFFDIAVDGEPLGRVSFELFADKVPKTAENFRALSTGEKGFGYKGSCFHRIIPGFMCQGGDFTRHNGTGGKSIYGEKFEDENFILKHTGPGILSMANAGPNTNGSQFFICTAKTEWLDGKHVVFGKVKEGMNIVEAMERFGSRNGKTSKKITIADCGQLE
T3 sequence (P62937 whole entry E81S/K82R): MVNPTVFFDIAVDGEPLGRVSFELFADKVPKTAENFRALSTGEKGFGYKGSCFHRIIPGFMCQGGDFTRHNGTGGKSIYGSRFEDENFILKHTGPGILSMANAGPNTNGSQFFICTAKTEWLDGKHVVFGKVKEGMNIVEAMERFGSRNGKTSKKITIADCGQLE
T4 sequence (P30405 45-207 S123E): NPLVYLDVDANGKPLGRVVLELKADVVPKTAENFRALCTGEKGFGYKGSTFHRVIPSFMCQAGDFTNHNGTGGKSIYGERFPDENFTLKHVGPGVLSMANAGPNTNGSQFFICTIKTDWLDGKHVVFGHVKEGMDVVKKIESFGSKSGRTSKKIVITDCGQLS
T6 sequence (P23284 34-216 E121S): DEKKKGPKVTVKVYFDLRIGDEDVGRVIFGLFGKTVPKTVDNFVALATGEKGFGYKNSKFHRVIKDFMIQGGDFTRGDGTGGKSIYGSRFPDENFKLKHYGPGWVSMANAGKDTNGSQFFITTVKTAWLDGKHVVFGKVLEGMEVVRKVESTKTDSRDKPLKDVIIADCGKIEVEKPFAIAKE

C[N+]1=C(/C=C/C=C/C=C2\N(CCCCCC(=O)NCCNC(=O)[C@H]3CCNC(=O)/C=C/C(=O)N4CCC[C@@](Cc5ccccc5)(C4)C(=O)N[C@H](Cc4ccc(-c5ccc(CC(C(=O)O)C(=O)O)cc5)cc4)C(=O)NCc4ccccc4CC(=O)N3)c3ccccc3C2(C)C)C(C)(C)c2ccccc21 [*B52-Cy5]
CypD prolyl-isomerase inhibition (in words) (CypD [1]): did not inhibit CypD
mitochondrial localization (overlap with Mitotracker Green) (HeLa cells): poor mitochondrial localization and fluorescence
inhibition of cyclophilins tested (in words) (cyclophilins): no substantial inhibition profile
calcium retention capacity prior to mPTP opening [2]: did not influence calcium retention capacity

C[N+]1=C(/C=C/C=C/C=C2\N(CCCCCC(=O)NCCNC(=O)[C@H]3CCNC(=O)/C=C/C(=O)N4CCC[C@@](Cc5ccccc5)(C4)C(=O)N[C@H](Cc4ccc(-c5ccc(C(CC(=O)O)CC(=O)O)cc5)cc4)C(=O)NCc4ccccc4CC(=O)N3)c3ccccc3C2(C)C)C(C)(C)c2ccccc21 [*B53-Cy5]
CypD prolyl-isomerase inhibition (in words) (CypD [1]): did not inhibit CypD
mitochondrial localization (overlap with Mitotracker Green) (HeLa cells): poor mitochondrial localization and fluorescence
inhibition of cyclophilins tested (in words) (cyclophilins): no substantial inhibition profile
calcium retention capacity prior to mPTP opening [2]: did not influence calcium retention capacity

NCCOCCNC(=O)[C@@H]1CCNC(=O)/C=C/C(=O)N2CCC[C@](Cc3ccccc3)(C2)C(=O)N[C@@H](Cc2ccc(-c3ccc(CC(C(=O)O)C(=O)O)cc3)cc2)C(=O)NCc2ccccc2CC(=O)N1 [Compound B52]
IC50 (CypD K118E): 300 nM
IC50 (CypA E81S/K82R): 27 nM
IC50 (CypD [1]; wild-type CypD): 10 nM
selectivity for CypD over CypA (CypD [3]): 100 fold
IC50 (CypD S123E): 240 nM
IC50 (CypA): 1100 nM
IC50 (CypB E121S): 8 nM
IC50 (CypB): 210 nM
IC50 (CypD K118A): 73 nM
cyclophilin selectivity profile (in words) (cyclophilins): high potency and selectivity for CypD
potency on cyclophilin mutants compared to wild-type (in words) (cyclophilins; mutants as named at the place): little to no ablation of potency

NC(=O)[C@@H]1CCNC(=O)/C=C/C(=O)N2CCC[C@](Cc3ccccc3)(C2)C(=O)N[C@@H](Cc2ccc(-c3ccc(C=O)c(B(O)O)c3)cc2)C(=O)NCc2ccccc2CC(=O)N1 [Compound C3A]
CypE potency and selectivity in prolyl isomerase assay (in words) (CypE [4]): good selectivity and potency for CypE
IC50 more potent for CypE than for the other ten cyclophilins screened (CypE [4]): 30-750 fold
higher CypE inhibition potency of C3A over C5A (CypE [4]): 75 fold
selectivity for CypE over CypA (CypE [4]): > 100 fold
IC50 (CypE [4]; read-out: IC50 against CypE prolyl isomerase activity): 13 nM
inhibition of CypE K217A compared to wild-type (in words) (CypE K217A [5]): Loss of C3A inhibition potency
less potent at inhibiting K217A prolyl isomerase activity compared to wild-type CypE (CypE K217A [5]): 150 fold
IC50 (CypE K217A [5]; CypE K217A mutant, read-out: IC^CypEK217A50): 2000 nM
Ki (CypE [6]; 0.5 nM A26-Fl, wild-type CypE, read-out: Ki, inhibition of A26-Fl binding to CypE): 72 nM
more potency for CypE than for other tested cyclophilins (CypE [6]; FP competition with A26-Fl, lysine-containing cyclophilins): > 10 fold
CypE binding in FP competition (in words) (CypE [6]): selectivity for CypE
less potent at competing A26-Fl off of CypE K217A compared to wild-type CypE (CypE K217A [7]): 40 fold
Ki (CypE K217A [7]; 0.5 nM A26-Fl, CypE K217A, read-out: K^CypEK217Ai): 3100 nM
binding to CypE K217A compared to wild-type (in words) (CypE K217A [7]; FP competition with 0.5 nM A26-Fl): significantly attenuated binding
mass shift of covalent adduct with CypE (CypE [8]): 806 Da and 779 Da and 807 Da

NC(=O)[C@@H]1CCNC(=O)/C=C/C(=O)N2CCC[C@](Cc3ccccc3)(C2)C(=O)N[C@@H](Cc2ccc(-c3ccc(C=O)cc3)cc2)C(=O)NCc2ccccc2CC(=O)N1 [Compound C5A]
CypE potency and selectivity in prolyl isomerase assay (in words) (CypE [4]): loss in CypE potency and promiscuous cyclophilin inhibition
IC50 (CypE [4]; read-out: IC50^CypE): 1000 nM
decrease in potency relative to C3A (CypE [6]; FP competition with A26-Fl against CypE): 16 fold
CypE binding in FP competition (in words) (CypE [6]): attenuated inhibition of CypE
mass shift of covalent adduct with CypE (CypE [8]): 806 Da and 780 Da
